The record followed here is PMC7255010, “Small-molecule activating SIRT6 elicits therapeutic effects and synergistically promotes anti-tumor activity of vitamin D3 in colorectal cancer” (Theranostics, 2020).

One data set has as its system CYP24A1. Kind of data set: RT-qPCR of CYP24A1 mRNA in CRC cells. It counts as cell-based, human. To be noted: HCT116 and HT29 cells, 1,25(OH)2D3 (5 µM), 48 h. The method, then:
Total RNA was extracted with TRIzol reagent (Invitrogen) according to the manufacturer's instructions. For cDNA synthesis, 1 μg of total RNA was reverse transcribed using a FastKing RT Kit (Tiangen). RT-qPCRs were run in triplicate using SYBR Green master mix (Roche) in an ABI 7900 Thermal Cycler (Applied Biosystems) according to the manufacturer's instructions. RT-qPCRs were performed in triplicate, and the mean cycle threshold (Ct) values were calculated for expression analysis. The mRNA levels of target genes were calculated using the 2^-ΔΔCt method. The expression data were normalized to β-actin expression levels and are presented as the mean ± s.e.m. of three independent experiments.
For orientation: Quantitative PCR measures a nucleic acid by following its amplification.

Data set [1] is described as follows: Pharmacokinetic studies in mice. Type of data set: in vivo. More on the design: t1/2 / F (bioavailability): dose or concentration left out as unconfirmed. To be noted: C57BL/6J mice. The method, then: Pharmacokinetic studies were performed by Shanghai Medicilon Inc, China, following standard protocols. Briefly, six-week-old male C57BL/6J mice were grouped randomly (n = 5 per group). […] Two administration formulations were prepared in the vehicle with 5% DMSO, 10% Solutol and 85% saline, with the pH adjusted to 7.0-8.0. After treatment, the mice were sacrificed, and their plasma samples were collected at 5 min, 15 min, 30 min, 1 h, 2 h, 4 h, 8 h, and 24 h. The drug concentration in plasma was analyzed by LC-MS/MS. Pharmacokinetic parameters were calculated using Analyst Software 1.6.3 from mean plasma concentration-time profiles. The area under the curve (AUC) was measured from time versus concentration data by the linear trapezoidal rule. […] The calculation was normalized to relative doses.

For another data set, the target named is SIRT6 (Homo sapiens, UniProt Q8N6T7). Description: FDL assay of SIRT6 deacetylase activity (RHKK-Ac-AMC). More on the design: WT (wild-type) full-length human SIRT6 was inserted into the pET28a-LIC vector; made in house; host or cells: Escherichia coli BL21 (DE3). To be noted: activation of SIRT6 deacetylation, RHKK-Ac-AMC (75 µM), mean ± s.d., three independent experiments. It counts as biochemical. The method, then:
According to previously described methods, WT (wild-type) full-length human SIRT6 was inserted into the pET28a-LIC vector (Addgene plasmid #26094). The plasmid was transformed into Escherichia coli BL21 (DE3) cells. Protein was purified using a nickel column and gel filtration. Purified protein was dialyzed into assay buffer (50 mM Tris-HCl [pH 8.0], 137 mM NaCl, 2.7 mM KCl, and 1 mM MgCl2) and used in all in vitro assays performed in this study.
For the assessment of SIRT6 deacetylase activity, 5 μM WT SIRT6 was incubated in a 50-μL reaction mixture (2.5 mM NAD^+, 75 μM RHKK-Ac-AMC, compounds/DMSO, and assay buffer) at 37 °C for 2 h, quenched with 40 mM nicotinamide, and developed with 6 mg/mL trypsin for another 30 min at 25 °C. […] Fluorescence intensity was measured using a microplate reader (Synergy H4 Hybrid Reader, BioTek) at excitation and emission wavelengths of 360 nm and 460 nm, respectively. EC50 values were calculated by fitting the data points with the dose-response function in GraphPad Prism V7 (GraphPad Software). Each experiment was independently repeated three times in technical triplicates.

SIRT6, sequence (Q8N6T7 whole entry): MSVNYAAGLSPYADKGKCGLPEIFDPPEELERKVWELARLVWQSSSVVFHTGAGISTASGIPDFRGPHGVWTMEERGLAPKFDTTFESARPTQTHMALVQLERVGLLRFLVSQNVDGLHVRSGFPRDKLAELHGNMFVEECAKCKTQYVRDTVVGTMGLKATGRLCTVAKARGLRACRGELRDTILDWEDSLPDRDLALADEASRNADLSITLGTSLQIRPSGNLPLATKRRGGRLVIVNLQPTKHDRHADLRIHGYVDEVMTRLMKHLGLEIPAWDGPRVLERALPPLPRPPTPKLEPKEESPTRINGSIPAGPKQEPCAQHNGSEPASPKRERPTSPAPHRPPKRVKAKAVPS

Consider `C=C1/C(=C\C=C2/CCC[C@]3(C)[C@@H]([C@H](C)CCCC(C)(C)O)CC[C@@H]23)C[C@@H](O)C[C@@H]1O` [1,25(OH)2D3, 1,25-dihydroxyvitamin D3, reference compound], for which the CYP24A1 transcription result in the data set on CYP24A1 was “dramatically induced CYP24A1 transcription”.

Take `COC(=O)c1cc(NS(=O)(=O)c2cc(Cl)cc(Cl)c2)ccc1S(=O)(=O)Nc1cc(Br)c(F)cc1C` [MDL-800, reference compound]: in data set [1] (IP vs IV, ratio of AUC normalized to dose), the “F (bioavailability)” value amounted to 71.33%. Besides, in data set [1] (IP, plasma, mean of five mice), the AUC0-t is 17831.51 ng·h/mL, the “AUC0-∞” value is 17883.09 ng·h/mL, the Cmax amounted to 6610.46 ng/mL and the MRT was 2.47 h. In data set [1] (IP, plasma, mean of five mice), the t1/2 is 2.07 h and the tmax stood at 0.50 h.

Take `Cc1cc(F)c(Br)cc1NS(=O)(=O)c1ccc(NS(=O)(=O)c2cc(Cl)cc(Cl)c2)cc1CN1CCNCC1` [MDL-812]: the EC50 at SIRT6 came out at 12.8 ± 1 µM.

In the case of `CCCCN(CC)Cc1cc(NS(=O)(=O)c2cc(Cl)cc(Cl)c2)ccc1S(=O)(=O)Nc1cc(Br)c(F)cc1C` [MDL-813], at SIRT6, the EC50 was found to be 15.4 ± 0.4 µM.

As to `Cc1cc(F)c(Br)cc1NS(=O)(=O)c1ccc(NS(=O)(=O)c2cc(Cl)cc(Cl)c2)cc1CN1CCC(N2CCCCC2)CC1` [MDL-814], the EC50 at SIRT6 was 12.2 ± 0.7 µM.

`COCCCN1CCN(Cc2cc(NS(=O)(=O)c3cc(Cl)cc(Cl)c3)ccc2S(=O)(=O)Nc2cc(Br)c(F)cc2C)CC1` [MDL-815]: the EC50 on SIRT6 amounted to 6.5 ± 0.4 µM.

`CCCCN1CCN(Cc2cc(NS(=O)(=O)c3cc(Cl)cc(Cl)c3)ccc2S(=O)(=O)Nc2cc(Br)c(F)cc2C)CC1` [MDL-816]: the EC50 at SIRT6 was determined as 7.1 ± 0.3 µM.

Turning to `Cc1cc(F)c(Br)cc1NS(=O)(=O)c1ccc(NS(=O)(=O)c2cc(Cl)cc(Cl)c2)cc1CN1CCC(N(C)C)C1` (stereo not shown) [MDL-817], the half-maximal effective concentration (EC50) at SIRT6 turned out to be 9.9 ± 1.5 µM.

Regarding `Cc1cc(F)c(Br)cc1NS(=O)(=O)c1ccc(NS(=O)(=O)c2cc(Cl)cc(Cl)c2)cc1CN(C)C` [MDL-818], the EC50 at SIRT6 is 43.6 ± 3.2 µM.

With `CCN(C)Cc1cc(NS(=O)(=O)c2cc(Cl)cc(Cl)c2)ccc1S(=O)(=O)Nc1cc(Br)c(F)cc1C` [MDL-819], the EC50 at SIRT6 came to 34.1 ± 2.6 µM.

Turning to `CCCN(C)Cc1cc(NS(=O)(=O)c2cc(Cl)cc(Cl)c2)ccc1S(=O)(=O)Nc1cc(Br)c(F)cc1C` [MDL-820], on SIRT6, the EC50 is 38.4 ± 1.8 µM.

For `Cc1cc(F)c(Br)cc1NS(=O)(=O)c1ccc(NS(=O)(=O)c2cc(Cl)cc(Cl)c2)cc1CN1CCCCC1` [MDL-821], the EC50 on SIRT6 was found to be 12.2 ± 0.9 µM.

`Cc1cc(F)c(Br)cc1NS(=O)(=O)c1ccc(NS(=O)(=O)c2cc(Cl)cc(Cl)c2)cc1CN1CCCC1CO` (stereo not shown) [MDL-822]: the EC50 at SIRT6 came to 23.9 ± 1 µM.

Usually Cmax stands for the maximum level reached in the sampled fluid or tissue. By MRT is commonly meant a mean duration of stay, worked out from the concentration-time curve. As a reminder, the EC50 is the concentration at which the effect is half-maximal.
